# Test results from the supplement of paper PMC10307832.
# What was measured:
# Test in all cases: relative viability (nuclei count vs DMSO), 5 days (fraction); higher = more cells survive
# AT-7519 + AZD7762 = compound: O=C(NC1CCNCC1)c1n[nH]cc1NC(=O)c1c(Cl)cccc1Cl [AT-7519] + NC(=O)Nc1cc(-c2cccc(F)c2)sc1C(=O)N[C@H]1CCCNC1 [AZD7762] (partner 0.2 µM)
# How it was run: (§1)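 A single step with final 0.05% Triton X-100, 1% formaldehyde and 1 ug/ml Hoechst fixed the cells and stained nuclei 5 days after treatment. Lung cancer cell lines in 1536-well plates had been treated by pin tool the day after seeding with one drug alone or a fixed anchor-drug dose plus five library-drug doses (not always all listed) in √10 steps, and nuclei were counted on 4× images. Relative viability is the ratio of nuclei in treated wells to nuclei in vehicle wells, taken as the median of duplicate plates.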
# [1] = compound: C1=CC2=C(C=C(C(=C2N=C1)O)N=NC3=CC4=C(C=C3)C=C(C=C4)S(=O)(=O)O)S(=O)(=O)O + COc1cccc2cc(-c3nc([C@H]4CC[C@H](C(=O)O)CC4)n4ncnc(N)c34)[nH]c12 [OSI-027] (partner 0.5 µM)
# How it was run: as §1
# AT-7519 + Lapatinib = compound: O=C(NC1CCNCC1)c1n[nH]cc1NC(=O)c1c(Cl)cccc1Cl [AT-7519] + CS(=O)(=O)CCNCc1ccc(-c2ccc3ncnc(Nc4ccc(OCc5cccc(F)c5)c(Cl)c4)c3c2)o1 [Lapatinib] (partner 2 µM)
# How it was run: as §1
# AT-7519 + Luminespib = compound: O=C(NC1CCNCC1)c1n[nH]cc1NC(=O)c1c(Cl)cccc1Cl [AT-7519] + CCNC(=O)c1noc(-c2cc(C(C)C)c(O)cc2O)c1-c1ccc(CN2CCOCC2)cc1 [Luminespib] (partner 0.01 µM)
# How it was run: as §1
Cell Line,relative viability (AT-7519 + AZD7762; first compound 0.01 µM),relative viability (AT-7519 + AZD7762; first compound 0.03162 µM),relative viability (AT-7519 + AZD7762; first compound 0.3162 µM),relative viability (AT-7519 + AZD7762; first compound 1 µM),relative viability ([1]; first compound 0.08 µM),relative viability ([1]; first compound 0.253 µM),relative viability ([1]; first compound 0.8 µM),relative viability ([1]; first compound 2.53 µM),relative viability ([1]; first compound 8 µM),relative viability (AT-7519 + Lapatinib; first compound 0.01 µM),relative viability (AT-7519 + Lapatinib; first compound 0.03162 µM),relative viability (AT-7519 + Lapatinib; first compound 0.3162 µM),relative viability (AT-7519 + Lapatinib; first compound 1 µM),relative viability (AT-7519 + Luminespib; first compound 0.01 µM),relative viability (AT-7519 + Luminespib; first compound 0.03162 µM),relative viability (AT-7519 + Luminespib; first compound 0.3162 µM),relative viability (AT-7519 + Luminespib; first compound 1 µM)
201T,0.595,0.591,0.645,0.683,0.804,0.687,0.684,0.761,0.735,1.06,1.03,1.07,1.06,1.12,1.07,1.04,1.05
A549,–,–,–,–,–,–,–,–,–,0.879,1.01,0.856,0.349,–,–,–,–
A-427,0.791,0.627,0.883,0.502,0.402,0.447,0.45,0.41,0.5,1.1,0.989,1.03,0.929,1.07,0.88,1.06,0.184
ABC-1,0.922,0.782,0.952,0.907,0.435,0.336,0.463,0.499,0.64,0.984,0.909,0.986,0.966,0.75,0.582,0.347,0.206
BEN,0.685,0.754,0.697,0.704,0.289,0.303,0.244,0.297,0.292,0.834,0.68,0.781,0.55,0.303,0.307,0.231,0.361
CAL-12T,0.701,0.623,0.58,0.354,0.592,0.585,0.577,0.819,0.831,–,0.538,0.386,0.186,0.438,0.509,0.15,0.0831
COR-L23,–,–,–,–,0.884,0.781,0.725,0.612,0.802,1.14,0.786,0.325,0.121,1,0.867,0.273,0.116
COR-L 105,–,–,–,–,0.657,0.576,0.788,0.635,0.722,0.397,0.397,0.319,0.293,0.776,0.942,0.68,0.521
Calu-6,–,–,–,–,–,–,–,–,–,1.12,1.07,0.988,0.18,–,–,–,–
ChaGo-K-1,0.895,0.838,0.843,0.844,0.641,0.555,0.519,0.556,0.382,–,–,–,–,0.607,0.544,0.669,0.522
EBC-1,–,–,–,–,–,–,–,–,–,0.234,0.2,0.213,0.178,–,–,–,–
EKVX,0.798,0.608,0.822,0.719,0.691,0.682,0.684,0.721,0.539,0.203,0.198,0.186,0.172,0.988,0.845,0.846,0.774
EMC-BAC-2,1.09,1.1,1.03,1.19,0.408,0.397,0.386,0.363,0.343,0.866,0.85,0.889,0.886,1.21,1.17,1.19,1.14
EPLC-272H,0.321,0.21,0.302,0.336,0.298,0.258,0.258,0.283,0.294,0.979,0.913,0.652,1.07,0.226,0.216,0.37,0.0726
H3255,0.987,0.903,0.937,0.876,0.544,0.633,0.595,0.567,0.655,0.282,0.232,0.294,0.212,0.902,0.936,0.938,0.974
HARA,0.221,0.301,0.263,0.415,0.633,0.524,0.513,0.522,0.48,0.804,0.622,0.604,0.681,0.71,0.533,0.412,0.398
HCC-15,1.18,1.37,1.17,1.14,0.75,0.675,0.627,0.63,0.65,0.891,0.828,0.692,0.5,0.293,0.413,0.343,0.214
HCC-44,0.983,0.998,1.08,1,–,0.651,0.5,0.55,0.601,0.984,1.05,1.1,0.979,1.13,1.03,0.636,0.235
HCC-78,0.609,0.636,0.616,0.815,0.436,0.368,0.417,0.346,0.348,0.837,0.79,1.08,0.878,–,–,–,–
HCC-366,0.326,0.228,0.293,0.371,0.989,0.932,0.89,0.861,0.948,0.868,1.08,0.797,0.243,–,–,–,–
HCC-827,0.215,0.17,0.21,0.237,0.804,0.764,0.754,0.798,0.843,0.21,0.165,0.162,0.157,0.603,0.61,0.566,0.334
HOP-62,0.589,0.557,0.621,0.743,0.843,0.817,0.67,0.807,0.836,1.03,0.963,1.06,1.05,1.02,0.916,0.993,0.859
IA-LM,–,–,–,–,–,–,–,–,–,0.911,0.821,0.658,0.0627,–,–,–,–
LC-2-ad,0.77,0.844,0.826,0.945,0.936,0.855,0.626,0.906,0.723,1.03,1.05,0.922,0.744,1.03,0.892,1.17,0.501

Cell Line,relative viability (AT-7519 + AZD7762; first compound 0.01 µM),relative viability (AT-7519 + AZD7762; first compound 0.03162 µM),relative viability (AT-7519 + AZD7762; first compound 0.3162 µM),relative viability (AT-7519 + AZD7762; first compound 1 µM),relative viability ([1]; first compound 0.08 µM),relative viability ([1]; first compound 0.253 µM),relative viability ([1]; first compound 0.8 µM),relative viability ([1]; first compound 2.53 µM),relative viability ([1]; first compound 8 µM),relative viability (AT-7519 + Lapatinib; first compound 0.01 µM),relative viability (AT-7519 + Lapatinib; first compound 0.03162 µM),relative viability (AT-7519 + Lapatinib; first compound 0.3162 µM),relative viability (AT-7519 + Lapatinib; first compound 1 µM),relative viability (AT-7519 + Luminespib; first compound 0.01 µM),relative viability (AT-7519 + Luminespib; first compound 0.03162 µM),relative viability (AT-7519 + Luminespib; first compound 0.3162 µM),relative viability (AT-7519 + Luminespib; first compound 1 µM)
LCLC-97TM1,0.24,0.294,0.335,0.394,0.535,0.432,0.496,0.474,0.515,0.83,0.732,0.805,0.758,0.976,0.692,0.788,0.285
LCLC-103H,0.8,0.739,0.807,0.901,0.475,0.485,0.444,0.463,0.517,–,–,–,–,1.06,0.953,0.955,0.867
LK-2,0.456,0.329,0.347,0.19,0.21,0.202,0.189,0.211,0.202,0.816,0.951,0.706,0.706,0.188,0.159,–,0.189
LOU-NH91,0.755,0.79,0.643,0.713,0.736,0.751,0.713,0.668,0.733,0.786,0.736,0.795,0.673,0.356,0.312,0.351,0.281
LU99A,0.329,0.29,0.538,0.342,0.311,0.301,0.35,0.292,0.296,1.02,1.07,0.898,0.41,0.274,0.221,0.223,0.193
NCI-H441,1.01,1.16,1.2,1.02,0.504,0.638,0.461,0.66,0.588,–,–,–,–,0.424,0.367,0.313,0.242
NCI-H520,–,–,–,–,0.215,0.219,0.201,0.274,0.22,0.922,0.638,0.587,0.283,0.233,0.239,0.263,0.209
NCI-H522,1,0.661,0.859,0.904,0.683,0.623,0.565,0.724,0.592,–,–,–,–,1.01,1.07,1.31,0.959
NCI-H661,–,–,–,–,0.789,0.736,0.703,0.683,0.687,0.348,0.383,0.385,0.322,1.01,0.92,0.975,0.219
NCI-H1299,–,–,–,–,–,–,–,–,–,0.994,0.977,0.975,0.58,–,–,–,–
NCI-H1563,–,–,–,–,0.786,0.732,0.818,0.77,0.727,0.923,0.971,1.07,1.01,0.526,0.542,0.599,0.538
NCI-H1648,0.63,–,0.578,1.12,0.259,0.251,0.263,0.253,0.185,–,–,–,–,–,–,–,–
NCI-H1650,–,–,–,–,0.718,0.542,0.667,0.651,0.65,0.781,0.782,0.555,0.21,0.186,0.202,0.205,0.21
NCI-H1703,–,–,0.152,0.148,–,–,–,–,–,1.03,0.955,0.821,0.206,–,–,–,–
NCI-H2009,–,–,–,–,0.574,0.6,0.645,0.642,0.71,1.09,0.825,0.66,0.277,1.03,1.03,1.02,0.881
NCI-H2023,–,–,–,–,0.434,0.431,0.454,0.367,0.552,0.911,0.755,0.504,0.177,0.622,0.748,0.521,0.16
NCI-H2228,–,–,–,–,0.765,0.688,0.653,0.57,0.592,1.02,1.11,0.669,0.481,0.152,0.174,0.156,0.165
NCI-H2342,0.514,0.507,0.508,0.447,0.529,0.657,0.603,0.563,0.674,–,–,–,–,0.646,0.759,0.613,0.587
SK-LU-1,–,–,–,–,0.424,0.366,0.38,0.338,0.354,0.726,0.943,0.766,0.506,0.221,0.195,0.202,0.2
SK-MES-1,–,–,–,–,0.69,0.633,0.588,0.681,0.661,0.455,0.468,0.451,0.392,0.847,0.734,0.593,0.33
SW 900,0.637,0.616,0.677,0.477,0.55,0.554,0.608,0.517,0.424,–,–,–,–,0.171,0.183,0.173,0.179
SW 1573,–,–,–,–,0.734,0.622,0.61,0.463,0.401,1.08,1.18,1.07,0.569,0.223,0.203,0.149,0.126
UMC-11,–,–,–,–,0.492,0.435,0.458,0.47,0.485,1.18,0.988,0.519,0.252,1.06,0.98,0.716,0.394
